Drawing on US20240043434A1, “COCRYSTALS OF UPADACITINIB” (AbbVie Inc., priority 2021, published 2024), this text covers Solubility and Purity for six molecules.

In brackets after ≈: the same amount, converted by molar mass. Read-outs that look alike come from different tables or passages of the source.

Series [1] is described as follows: Aqueous solubility determination of upadacitinib cocrystals. To be noted: aqueous solubility in water at 37° C., equilibrated by end-over-end tumbling for up to 24 hours. Format: physicochemical. As to the method:
A solubility study was performed to determine the aqueous solubility for five of the upadacitinib cocrystals disclosed herein. Sufficiently sized samples of the solid cocrystals were added to individual vials along with a measured volume of water. The water-cocrystal mixtures were equilibrated at 37° C. by end-over-end tumbling for up to 24 hours. The amount of dissolved solid was determined for each sample.

Series [2] in a line: Storage stability determination of upadacitinib cocrystals (open dish, 40° C./75% RH). Format: physicochemical. On the set-up: reference not given here. To be noted: chemical purity after storage in open dish at 40° C./75% RH up to one month. On the procedure:
A storage stability study was performed to determine the short term stability for each of the five upadacitinib cocrystals disclosed herein. Samples of each upadacitinib cocrystal were stored in an open dish at 40° C./75% relative humidity (RH) for up to one month.

For orientation: Solubility means the concentration that dissolves in the medium under given conditions. Consider `CC[C@@H]1CN(C(=O)NCC(F)(F)F)C[C@@H]1c1cnc2cnc3[nH]ccc3n12.O=C(O)c1ccc(O)c(O)c1` [3,4-dihydroxybenzoic acid cocrystal], for which the Solubility in series [1] was found to be 11300 ± 200 µg/mL. This molecule registered a Purity in series [2] of 103.9%.
The matching figures for `CC(=O)Nc1ccc(C(=O)O)cc1.CC[C@@H]1CN(C(=O)NCC(F)(F)F)C[C@@H]1c1cnc2cnc3[nH]ccc3n12` [4-acetamidobenzoic acid cocrystal]: 2530 ± 30 µg/mL and 100.0%.
In turn, `CC[C@@H]1CN(C(=O)NCC(F)(F)F)C[C@@H]1c1cnc2cnc3[nH]ccc3n12.O=C(O)c1ccc(O)c([N+](=O)[O-])c1` [4-hydroxy-3-nitrobenzoic acid cocrystal] came in with a Solubility in series [1] of 1470 ± 10 µg/mL. This molecule also showed a Purity in series [2] of 99.9%.
The matching figures for `CC[C@@H]1CN(C(=O)NCC(F)(F)F)C[C@@H]1c1cnc2cnc3[nH]ccc3n12.O=C(O)c1ccc(O)cc1` [4-hydroxybenzoic acid cocrystal]: 4290 ± 50 µg/mL and 102.7%.
For the molecule `CC[C@@H]1CN(C(=O)NCC(F)(F)F)C[C@@H]1c1cnc2cnc3[nH]ccc3n12` [Upadacitinib Form I, (3S,4R)-3-ethyl-4-(3H-imidazo[1,2-a]pyrrolo[2,3-e]pyrazin-8-yl)-N-(2,2,2-trifluoroethyl)pyrrolidine-1-carboxamide, reference compound], the Solubility in series [1] (thermodynamic from solid, read-out: Solubility) is 370 ± 4 µg/mL (≈ 973 µM). Moreover, in series [2], the Purity was 100.2%.
For `CCC1CN(C(=O)NCC(F)(F)F)CC1c1cnc2cnc3[nH]ccc3n12.O=C(O)c1cc(O)c(O)c(O)c1` (stereo not drawn) [gallic acid cocrystal], in series [1], the Solubility is 5130 ± 50 µg/mL. For the same molecule, the Purity in series [2] is recorded as 103.8%.
